Species: Rattus norvegicus
Assay: DrugMatrix - Regimen: Daily Repeat
Format: toxicity, organism-based, Sprague-Dawley
Parameters: regimen Daily Repeat, gender Male, age 6-8 weeks
Conditions: in vivo; for ABSOLUTE BASOPHIL / ABSOLUTE EOSINOPHIL / ABSOLUTE LYMPHOCYTE / ABSOLUTE MONOCYTE / ABSOLUTE SEGMENTED NEUTROPHIL / BASOPHIL / EOSINOPHIL / ERYTHROCYTE COUNT / HEMATOCRIT / HEMOGLOBIN / LEUKOCYTE COUNT / LYMPHOCYTE / MEAN CORPUSCULAR HEMOGLOBIN / MEAN CORPUSCULAR VOLUME / MONOCYTE / NEUTROPHIL / NUCLEATED RED BLOOD CELLS / PLATELET COUNT: tissue Blood; for ALANINE AMINOTRANSFERASE / ALBUMIN / ALKALINE PHOSPHATASE / ASPARTATE AMINOTRANSFERASE / BLOOD UREA NITROGEN / CARBON DIOXIDE / CHLORIDE / CHOLESTEROL / CREATINE PHOSPHOKINASE / CREATININE / GLUCOSE / LACTATE DEHYDROGENASE / LIPASE / PHOSPHORUS / POTASSIUM / SODIUM / TOTAL BILIRUBIN / TOTAL PROTEIN / URIC ACID: tissue Plasma
[1] = po, 0 mg/kg, 72 h, route oral GAVAGE, dose level Control, time 3 day, vehicle 100 % WATER
[2] = po, 0 mg/kg, 120 h, route oral GAVAGE, dose level Control, time 5 day, vehicle 100 % WATER
[3] = iv, 20 mg/kg, 72 h, dose level Low, time 3 day, vehicle 100 % SALINE
[4] = iv, 20 mg/kg, 120 h, dose level Low, time 5 day, vehicle 100 % SALINE

Structure (SMILES): CCCCCCCCCCCCCCCC[n+]1ccccc1.[Br-]
- ABSOLUTE BASOPHIL [1]: 0 CELLS/uL
- ABSOLUTE EOSINOPHIL [1]: 58.83 CELLS/uL
- ABSOLUTE LYMPHOCYTE [1]: 11823.5 CELLS/uL
- ABSOLUTE MONOCYTE [1]: 169 CELLS/uL
- ABSOLUTE SEGMENTED NEUTROPHIL [1]: 815.33 CELLS/uL
- BASOPHIL [1]: 0%
- EOSINOPHIL [1]: 0.5%
- ERYTHROCYTE COUNT [1]: 5.52 x10E6/uL
- HEMATOCRIT [1]: 35.77%
- HEMOGLOBIN [1]: 14.28 G/DL
- LEUKOCYTE COUNT [1]: 12.87 x10E3/uL
- LYMPHOCYTE [1]: 91.67%
- MEAN CORPUSCULAR HEMOGLOBIN [1]: 25.92 pg
- MEAN CORPUSCULAR VOLUME [1]: 64.85 fL
- MONOCYTE [1]: 1.33%
- NEUTROPHIL [1]: 6.5%
- NUCLEATED RED BLOOD CELLS [1]: 0 /100WBC
- PLATELET COUNT [1]: 1246.17 x10E3/uL
- ALANINE AMINOTRANSFERASE [1]: 66 u/L
- ALBUMIN [1]: 4.25 G/DL
- ALKALINE PHOSPHATASE [1]: 416 u/L
- ASPARTATE AMINOTRANSFERASE [1]: 106.17 u/L
- BLOOD UREA NITROGEN [1]: 12.67 mg/dL
- CARBON DIOXIDE [1]: 31.83 mmol/L
- CHLORIDE [1]: 102.5 MEQ/L
- CHOLESTEROL [1]: 69 mg/dL
- CREATINE PHOSPHOKINASE [1]: 601.83 u/L
- CREATININE [1]: 0.18 mg/dL
- GLUCOSE [1]: 154.5 mg/dL
- LACTATE DEHYDROGENASE [1]: 301.83 u/L
- LIPASE [1]: 11.17 u/L
- PHOSPHORUS [1]: 12.08 mg/dL
- POTASSIUM [1]: 6.12 MEQ/L
- SODIUM [1]: 145.2 MEQ/L
- TOTAL BILIRUBIN [1]: 0.17 mg/dL
- TOTAL PROTEIN [1]: 6.1 G/DL
- URIC ACID [1]: 1.57 mg/dL
- ABSOLUTE BASOPHIL [2]: 0 CELLS/uL
- ABSOLUTE EOSINOPHIL [2]: 19.33 CELLS/uL
- ABSOLUTE LYMPHOCYTE [2]: 12577.83 CELLS/uL
- ABSOLUTE MONOCYTE [2]: 106.33 CELLS/uL
- ABSOLUTE SEGMENTED NEUTROPHIL [2]: 896.5 CELLS/uL
- BASOPHIL [2]: 0%
- EOSINOPHIL [2]: 0.17%
- ERYTHROCYTE COUNT [2]: 5.84 x10E6/uL
- HEMATOCRIT [2]: 36.88%
- HEMOGLOBIN [2]: 14.48 G/DL
- LEUKOCYTE COUNT [2]: 13.6 x10E3/uL
- LYMPHOCYTE [2]: 92.17%
- MEAN CORPUSCULAR HEMOGLOBIN [2]: 24.85 pg
- MEAN CORPUSCULAR VOLUME [2]: 63.23 fL
- MONOCYTE [2]: 0.83%
- NEUTROPHIL [2]: 6.83%
- NUCLEATED RED BLOOD CELLS [2]: 0 /100WBC
- PLATELET COUNT [2]: 1223.5 x10E3/uL
- ALANINE AMINOTRANSFERASE [2]: 55.33 u/L
- ALBUMIN [2]: 4.08 G/DL
- ALKALINE PHOSPHATASE [2]: 355.5 u/L
- ASPARTATE AMINOTRANSFERASE [2]: 87.67 u/L
- BLOOD UREA NITROGEN [2]: 15.33 mg/dL
- CARBON DIOXIDE [2]: 33.83 mmol/L
- CHLORIDE [2]: 99.67 MEQ/L
- CHOLESTEROL [2]: 72.17 mg/dL
- CREATINE PHOSPHOKINASE [2]: 268.33 u/L
- CREATININE [2]: 0.15 mg/dL
- GLUCOSE [2]: 152.5 mg/dL
- LACTATE DEHYDROGENASE [2]: 212.67 u/L
- LIPASE [2]: 10.83 u/L
- PHOSPHORUS [2]: 11.65 mg/dL
- POTASSIUM [2]: 6.73 MEQ/L
- SODIUM [2]: 142.43 MEQ/L
- TOTAL BILIRUBIN [2]: 0.23 mg/dL
- TOTAL PROTEIN [2]: 6.07 G/DL
- URIC ACID [2]: 1.7 mg/dL

Structure (SMILES): CCC[C@@H]1C[C@@H](C(=O)N[C@@H]([C@H]2O[C@H](SC)[C@H](O)[C@@H](O)[C@H]2O)[C@H](C)Cl)N(C)C1 [CLINDAMYCIN]
- ABSOLUTE BASOPHIL [3]: 0 CELLS/uL
- ABSOLUTE EOSINOPHIL [3]: 40 CELLS/uL
- ABSOLUTE LYMPHOCYTE [3]: 9607.67 CELLS/uL
- ABSOLUTE MONOCYTE [3]: 40 CELLS/uL
- ABSOLUTE SEGMENTED NEUTROPHIL [3]: 712.33 CELLS/uL
- BASOPHIL [3]: 0%
- EOSINOPHIL [3]: 0.33%
- ERYTHROCYTE COUNT [3]: 5.49 x10E6/uL
- HEMATOCRIT [3]: 34.93%
- HEMOGLOBIN [3]: 13.7 G/DL
- LEUKOCYTE COUNT [3]: 10.4 x10E3/uL
- LYMPHOCYTE [3]: 92.67%
- MEAN CORPUSCULAR HEMOGLOBIN [3]: 24.97 pg
- MONOCYTE [3]: 0.33%
- NEUTROPHIL [3]: 6.67%
- NUCLEATED RED BLOOD CELLS [3]: 0 /100WBC
- PLATELET COUNT [3]: 1194.33 x10E3/uL
- ALANINE AMINOTRANSFERASE [3]: 42 u/L
- ALBUMIN [3]: 4.4 G/DL
- ALKALINE PHOSPHATASE [3]: 375.67 u/L
- ASPARTATE AMINOTRANSFERASE [3]: 82.67 u/L
- BLOOD UREA NITROGEN [3]: 19 mg/dL
- CARBON DIOXIDE [3]: 35.33 mmol/L
- CHLORIDE [3]: 97 MEQ/L
- CHOLESTEROL [3]: 81.33 mg/dL
- CREATINE PHOSPHOKINASE [3]: 250 u/L
- CREATININE [3]: 0.19 mg/dL
- GLUCOSE [3]: 124.33 mg/dL
- LACTATE DEHYDROGENASE [3]: 260.67 u/L
- LIPASE [3]: 11 u/L
- PHOSPHORUS [3]: 9.63 mg/dL
- POTASSIUM [3]: 6.58 MEQ/L
- SODIUM [3]: 143.4 MEQ/L
- TOTAL BILIRUBIN [3]: 0.17 mg/dL
- TOTAL PROTEIN [3]: 6.4 G/DL
- URIC ACID [3]: 0.87 mg/dL
- ABSOLUTE BASOPHIL [4]: 0 CELLS/uL
- ABSOLUTE EOSINOPHIL [4]: 97.33 CELLS/uL
- ABSOLUTE LYMPHOCYTE [4]: 13386.67 CELLS/uL
- ABSOLUTE MONOCYTE [4]: 100.67 CELLS/uL
- ABSOLUTE SEGMENTED NEUTROPHIL [4]: 1348.67 CELLS/uL
- BASOPHIL [4]: 0%
- EOSINOPHIL [4]: 0.67%
- ERYTHROCYTE COUNT [4]: 5.84 x10E6/uL
- HEMATOCRIT [4]: 35.8%
- HEMOGLOBIN [4]: 14.27 G/DL
- LEUKOCYTE COUNT [4]: 14.93 x10E3/uL
- LYMPHOCYTE [4]: 89.67%
- MEAN CORPUSCULAR HEMOGLOBIN [4]: 24.47 pg
- MONOCYTE [4]: 0.67%
- NEUTROPHIL [4]: 9%
- NUCLEATED RED BLOOD CELLS [4]: 0 /100WBC
- PLATELET COUNT [4]: 1266.67 x10E3/uL
- ALANINE AMINOTRANSFERASE [4]: 57.67 u/L
- ALBUMIN [4]: 4.33 G/DL
- ALKALINE PHOSPHATASE [4]: 400.67 u/L
- ASPARTATE AMINOTRANSFERASE [4]: 85 u/L
- BLOOD UREA NITROGEN [4]: 18.67 mg/dL
- CARBON DIOXIDE [4]: 35.33 mmol/L
- CHLORIDE [4]: 100.33 MEQ/L
- CHOLESTEROL [4]: 70.67 mg/dL
- CREATINE PHOSPHOKINASE [4]: 217 u/L
- CREATININE [4]: 0.19 mg/dL
- GLUCOSE [4]: 148.33 mg/dL
- LACTATE DEHYDROGENASE [4]: 152.67 u/L
- LIPASE [4]: 8.33 u/L
- PHOSPHORUS [4]: 12.6 mg/dL
- POTASSIUM [4]: 7.37 MEQ/L
- SODIUM [4]: 144.4 MEQ/L
- TOTAL BILIRUBIN [4]: 0.2 mg/dL
- TOTAL PROTEIN [4]: 6.43 G/DL
- URIC ACID [4]: 1.67 mg/dL
